# Laboratory results published in patent US20240352419A1, “METHODS AND COMPOSITIONS FOR DIFFERENTIATION OF PLURIPOTENT STEM CELLS AND DERIVED HEMATOPOIETIC LINEAGE CELLS” (NUWACELL BIOTECHNOLOGIES CO., LTD., priority 2022, published 2024).
# Tests used:
# PBNK cells = experiment: Expansion of PBNK cells from PBMCs (expansion fold, CD56+CD3- percentage by flow cytometry); format: cell-based; details: effect of NAM concentration (0-5 mM) in basal medium
# Protocol: The effect of the concentration of nicotinamide (NAM) in an exemplary basal medium on NK cell expansion was evaluated. The above basal medium comprised the following components: IMDM (Sigma):RPMI1640 (Gibco) (50%: 50%); about 1.3 ng/ml of Cupric sulfate, about 3 μM of Ferric sulfate, about 0.432 μg/mL of Zinc sulfate, about 1˜50 ng/ml of Na Selenite, about 110 μg/mL of Sodium pyruvate, 0.1˜20 μg/mL of Insulin, 1˜200 μg/mL of Transferrin, about 1% (v/v) of GlutaMAX-1, 0.1˜20 mg/mL of HSA, 1˜400 μM of MTG, about 80 μg/mL of Ascorbic acid and indicated concentration of NAM. Peripheral blood mononuclear cells (PBMCs) were isolated by density gradient centrifugation using Ficoll-Paque. On Day 0, PBMCs were plated at 1×10^6 cells/mL in a 48-well-plate in the basal medium with NAM (either 0, 1, 2, 2.5, 3, 3.5, 4, or 5 mM) and stimulated with the following reagents for 3 days: immobilized CD16 antibody (Biolegend, 302014) (135 ng/cm^2), IL-2 (700 IU/mL), IL-15 (10 ng/ml) and OK432 (0.01 KE/mL). On day 3, cells were re-suspended in the above basal medium supplemented with IL-2 (700 IU/mL) and IL-15 (10 ng/mL). Fresh medium was added every other day to maintain cell density below 2×10^6 cells/mL. Cells were collect on Day 14 and stained with CD56-PE and CD3-PerCP-Cy5.5 antibodies, the percentage of CD56^+CD3^− NK cells was analyzed by flow cytometry.
# The effect of heparin sodium concentration in an exemplary NKSFM on NK cell expansion was also evaluated. NKSFM comprised the following components: IMDM (Sigma):DMEM/F12 (Gibco) (50%: 50%); about 20 μM of Ethanolamine, about 1˜50 ng/ml of Na Selenite, about 110 μg/mL of Sodium pyruvate, 0.1˜20 μg/mL of Insulin, 1˜200 μg/mL of Transferrin, about 1% (v/v) of GlutaMAX-1, 0.1˜20 mg/mL of Human serum albumin, 1˜400 μM of MTG, about 80 μg/mL of Ascorbic acid, about 1˜5 mM of NAM, 4% (v/v) of PLT, and indicated concentration of heparin sodium. PBMCs were isolated by density gradient centrifugation using Ficoll-Paque. On Day 0, PBMCs were plated at 1×10^6 cells/mL in a 48-well-plate in NKSFM with heparin sodium (0, 0.5, 1, 3, 10, 30, or 50 μg/mL) and stimulated with the following reagents for 3 days: immobilized CD16 antibody (Biolegend, 302014) (135 ng/cm^2), OK432 (0.01 KE/mL), NeoIL-2 (50 ng/ml), IL-12 (10 ng/mL), IL-18 (50 ng/mL). […] Cells were collect on Day 13 and stained with CD56-PE and CD3-PerCP-Cy5.5 antibodies, the percentage of CD56^+CD3^− NK cells was analyzed by flow cytometry. The specific lysis of K562 tumor cells by NK cells were assessed by CFSE/7-AAD cytotoxicity assay. […] After incubation for 4 hours, cells were stained with 7-AAD (Live/dead staining) and analyzed with flow cytometry.
# The effect of PLT percentage (v/v) in an exemplary NKSFM on NK cell expansion was evaluated. […]
# hiPSCs = experiment: Directed differentiation of hiPSCs into HE, HP and iNK cells (flow cytometry KDR, CD34, CD56); format: cell-based, human; details: for output of CD34+ HP cells / output of CD56+ iNK cells: added during Stage 1-4 (XAV939 5 μM, SB431542 6 μM); for output of CD34+ HP cells: Day 10, vs control, FIG. 8A; for output of CD56+ iNK cells: Day 25, vs control, FIGS. 8B and 8C
# Protocol: hiPSCs were prepared as described in CN108373998B. On Day −1, Embryoid body (EB) formation (Stage 1-1) was carried out by placing individualized hiPSCs in E8 medium containing 10 μM Blebbistatin in T25 flasks on a bellydancer and culture overnight. On Day 0, lateral mesoderm differentiation (Stage 1-2) was initiated by changing the medium to a Stage 1-2 differentiation medium comprising indicated basal medium (see Table 2.1) and supplemented with BMP4 (25 ng/ml), VEGF (50 ng/mL), bFGF (0.5 ng/ml) and CHIR99021 (4 μM) for 2 days. On Day 2, lateral mesoderm differentiation (Stage 1-3) continued for 1 day in a Stage 1-3 differentiation medium comprising indicated basal medium and supplemented with BMP4 (25 ng/mL), VEGF (50 ng/ml) and bFGF (0.5 ng/ml) and CHIR99021 (1 μM). On Day 3, HE specification (Stage 1-4) was initiated by adding a Stage 1-4 differentiation medium comprising indicated basal medium and supplemented with VEGF (50 ng/mL), bFGF (5 ng/mL), XAV939 (5 μM) for 1 day. On Day 4 (the end of Stage 1-4), EBs were dissociated into single cells and stained with KDR-APC antibody, the percentage of KDR^+ cells were detected by flow cytometry. HP differentiation (Stage 1-5) in was initiated by adding a Stage 1-5 differentiation medium comprising indicated basal medium and supplemented with SCF (10 ng/ml), Flt3L (10 ng/ml), VEGF (15 ng/ml) and bFGF (5 ng/mL) for 3 days. On Day 7 (the end of Stage 1-5), EBs were dissociated into single cells and stained with CD34− APC antibody, the percentage of CD34^+ HP cells was detected by flow cytometry. To initiate the differentiation from HP cells into iNK cells (Stage 2), EBs were collected and seeded in 6-well-plates coated with matrix proteins, DLL4 and VCAM1, in a Stage 2 differentiation medium comprising NKSFM and supplemented with SCF (20 ng/mL), Flt3L (10 ng/mL), IL-7 (25 ng/mL, Peprotech), IL-3 (5 ng/mL, Peprotech), IL-2 (700 IU/mL), IL-15 (10 ng/mL, Peprotech) for 14 days. On Day 21 (Stage 2-wk2), derived cells were counted and stained with CD56-PE antibody, the percentage of CD56^+ iNK cells were detected by flow cytometry. […] This improvement is attributed to the addition of NAM, PLT and Heparin sodium in NKSFM as compared with IF-4.
# hiPSCs were prepared as described in CN108373998B. Basal medium used during Stage 2 of differentiation was also evaluated. On Day-1, Embryoid body (EB) formation (Stage 1-1) was carried out by placing individualized hiPSCs in E8 medium containing 10 μM Blebbistatin in T25 flasks on a shaker and cultured overnight. On Day 0, lateral mesoderm differentiation (Stage 1-2) was initiated by changing the medium to a Stage 1-2 differentiation medium comprising IF-4 basal medium and supplemented with BMP4 (25 ng/mL), VEGF (15 ng/mL), bFGF (0.5 ng/mL) and CHIR99021 (4 μM) for 2 days. On Day 2, lateral mesoderm differentiation (Stage 1-3) continued for 1 day in a Stage 1-3 differentiation medium comprising IF-4 basal medium and supplemented with BMP4 (25 ng/ml), VEGF (15 ng/mL) and bFGF (0.5 ng/mL) and CHIR99021 (4 μM). On Day 3, HE specification (Stage 1-4) was initiated by adding a Stage 1-4 differentiation medium comprising IF-4 basal medium and supplemented with VEGF (15 ng/mL), bFGF (5 ng/ml), SB431542 (6 μM) for 1 day. On Day 4 (the end of Stage 1-4), EBs were dissociated into single cells and stained with KDR-APC antibody, the percentage of KDR+ cells was detected by flow cytometry. HP differentiation (Stage 1-5) in was initiated by adding a Stage 1-5 differentiation medium comprising NKSFM and supplemented with SCF (50 ng/ml), Flt3L (10 ng/mL), VEGF (15 ng/mL) and bFGF (5 ng/mL) for 5 days. […]
# [1] = higher VEGF concentration during Stage 1-5
compound,measurement,setting,value
"NC(=O)c1cccnc1 [NAM, nicotinamide]",NK cell expansion fold,"PBNK cells; Day 14, FIG. 2A",significantly impacts
same,percentage of CD56+CD3− NK cells,"PBNK cells; Day 14, FIG. 2B",minimal effects
Cc1c[nH]c(-c2cnc(NCCNc3ccc(C#N)cn3)nc2-c2ccc(Cl)cc2Cl)n1 [CHIR99021],differentiation into CD34+ HP cells,"hiPSCs; higher concentration of CHIR99021 (5-8 μM) during Stage 1-2, FIG. 9A",generally more advantageous
same,differentiation into CD56+ iNK cells,"hiPSCs; higher concentration of CHIR99021 (5-8 μM) during Stage 1-2, FIGS. 9B and 9C",somewhat disadvantageous
same,differentiation into CD34+ HP cells,"hiPSCs; lower concentration of CHIR99021 (0-4 μM) during Stage 1-3, FIG. 10A",somewhat disadvantageous
same,differentiation into CD56+ iNK cells,"hiPSCs; lower concentration of CHIR99021 (0-4 μM) during Stage 1-3, FIGS. 10B and 10C",generally more advantageous
NC(=O)c1ccc(-c2nc(-c3ccc4c(c3)OCO4)c(-c3ccccn3)[nH]2)cc1 [SB431542],output of CD34+ HP cells,hiPSCs,improvement in increasing CD34^+ HP cell production at a certain degree
same,output of CD56+ iNK cells,hiPSCs,does not show any improvement
Oc1nc(-c2ccc(C(F)(F)F)cc2)nc2c1CSCC2 [XAV939],output of CD34+ HP cells,hiPSCs,significantly promotes
same,output of CD56+ iNK cells,hiPSCs,significantly promotes
VEGF,percentage of KDR+ HE cells,"hiPSCs; different VEGF concentration (15-100 ng/mL) in Stage 1, FIG. 11A",minimal effects
same,percentage of CD34+ HP cells,"hiPSCs; different VEGF concentration (15-100 ng/mL) in Stage 1, FIG. 11B",significantly impacts
same,efficiency of further differentiation into iNK cells,"hiPSCs; different VEGF concentration (15-100 ng/mL) in Stage 1, cell morphology, FIG. 11C",significantly impacts
same,differentiation into HP cells and iNK cells,hiPSCs; higher VEGF concentration during Stage 1-2 and Stage 1-3,generally beneficial
same,differentiation into HP cells,hiPSCs; [1],generally beneficial
same,differentiation into iNK cells,hiPSCs; [1],but not into iNK cells
same,HP and iNK cell differentiation,"hiPSCs; higher concentration of VEGF during Stage 1, especially Stage 1-2, 1-3 and 1-4, FIG. 12",significantly improves
